From publication PMC11984407, “A natural small molecule isoginkgetin alleviates hypercholesterolemia and atherosclerosis by targeting ACLY” (Theranostics, 2025)

Experiments:
AMPK = assay: Western blot of p-AMPK in AML12 and HepG2 cells; assay type: cell-based; conditions: 5 µM, 12 h after 50 µM palmitic acid
Procedure: Western blotting was performed as previously described. In brief, whole-cell lysates from cultured cells and animal tissue were prepared using 1× sample buffer, followed by boiling at 95 °C for 10 min. Subsequently, SDS-PAGE was employed to separate the samples, which were then transferred onto a nitrocellulose membrane (Pall, NY, USA). Subsequently, the membrane was incubated in a blocking buffer for one h at room temperature. Following the removal of the blocking buffer, the blots were incubated with primary antibodies (1:1,000 dilution) at 4 °C overnight. The membrane was washed thrice for 10 min each, using 1× Tris-buffered saline with 0.1% Tween-20 (TBST). Subsequently, the membranes were incubated with IRDye® 680RD Goat anti-Mouse IgG (H + L) or IRDye® 800CW Goat anti-Rabbit IgG (H + L) (1:10,000 dilution, LI-COR, Lincoln, Nebraska, USA) at room temperature for 1 h. Visualization of the blots was carried out using the Li-COR CLx infrared imaging system. GAPDH (60004-1-Ig, Proteintech, Chicago, IL, USA), ACLY (67166-1-Ig, Proteintech, Chicago, IL, USA), LDLR (10785-1-AP, Proteintech, Chicago, IL, USA), β-Actin (66009-1-Ig, Proteintech, Chicago, IL, USA), AMPK (10929-2-AP, Proteintech, Chicago, IL, USA), p-AMPK^T172 (2535, Cell Signaling Technology, Danvers, MA, USA).

[1] = test system: primary mouse hepatocytes; assay: De novo lipogenesis in vitro, [1,2-14C]-acetate incorporation; assay type: cell-based; conditions: 2.5 μmol/L and 5 μmol/L, 4 h
Procedure: Hepatocytes were seeded in 6-well plates at a density of 6 x 10^5 cells per well. They were exposed to various compounds along with [1,2-^14C]-acetate (0.1 μCi per well) for specified durations. Following treatment, the cells underwent washing with cold PBS and were lysed in 0.4 to 0.6 mL of 0.5 M KOH. The saponification process at 95 °C for 3 h with 0.4 mL of KOH (in 20% methanol solution) enabled the separation of cholesterol and fatty acids. Cholesterol, being nonpolar, was extracted using 0.5 mL of petroleum ether in three separate instances. In comparison, polar fatty acids were extracted with 0.5 mL of petroleum ether after adding 0.2 mL of H2O and 0.4 mL of 5 M H2SO4 in three rounds. The petroleum ether extracts were left to air dry at room temperature overnight. The radioactivity of the resultant products was quantified using a liquid scintillation counter.

In the case of COc1ccc(-c2cc(=O)c3c(O)cc(O)c(-c4cc(-c5cc(=O)c6c(O)cc(O)cc6o5)ccc4OC)c3o2)cc1 [ISOGK, Isoginkgetin], the p-AMPK protein expression (AMPK) is reported as “activate AMPK” and the “incorporation of [1,2-14C]-acetate into fatty acids and cholesterol” value [1] is reported as “inhibition of lipogenesis”.
